Test results: US6495065B1, “Nitrosamine-inhibiting compositions for shortstopping of free radical emulsion polymerizations” (Atofina Chemicals, Inc., priority 1999, dated 2002)

Assay: Solubility in water

Structure (SMILES) | Solubility in water [wt. %]
CCN(O)CC [DEHA, diethylhydroxylamine] | ~85
CC(C)NO [NiPHA, N-isopropylhydroxylamine] | ~15
